Where two headings read alike, the source gives them in different places.
Columns and labels:
[1] = biological target: T1, PPAR Alpha (Homo sapiens, UniProt Q07869); assay: PathHunter NHR protein interaction / nuclear translocation agonist test, PPAR Alpha; assay type: cell-based; settings: for Emax: read-out: PPAR Alpha Maximum Activation Response %
T1 sequence (Q07869 1-468): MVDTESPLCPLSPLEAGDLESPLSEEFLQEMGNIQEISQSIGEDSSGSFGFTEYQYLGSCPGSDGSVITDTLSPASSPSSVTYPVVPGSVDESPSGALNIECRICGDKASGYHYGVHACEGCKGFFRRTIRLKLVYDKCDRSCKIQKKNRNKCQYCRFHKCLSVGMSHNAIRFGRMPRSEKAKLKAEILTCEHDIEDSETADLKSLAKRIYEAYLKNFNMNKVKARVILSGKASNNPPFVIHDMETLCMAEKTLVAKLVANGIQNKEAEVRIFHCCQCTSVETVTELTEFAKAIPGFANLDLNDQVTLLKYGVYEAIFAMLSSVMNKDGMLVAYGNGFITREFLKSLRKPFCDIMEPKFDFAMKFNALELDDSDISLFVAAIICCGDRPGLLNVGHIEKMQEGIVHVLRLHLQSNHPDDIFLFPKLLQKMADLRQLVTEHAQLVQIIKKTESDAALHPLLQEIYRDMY

[2] = biological target: T2, PPAR Delta (Homo sapiens, UniProt Q03181); assay: PathHunter NHR protein interaction / nuclear translocation agonist test, PPAR Delta; assay type: cell-based; settings: for Emax: read-out: PPAR Delta Maximum Activation Response %
T2 sequence (Q03181 1-441): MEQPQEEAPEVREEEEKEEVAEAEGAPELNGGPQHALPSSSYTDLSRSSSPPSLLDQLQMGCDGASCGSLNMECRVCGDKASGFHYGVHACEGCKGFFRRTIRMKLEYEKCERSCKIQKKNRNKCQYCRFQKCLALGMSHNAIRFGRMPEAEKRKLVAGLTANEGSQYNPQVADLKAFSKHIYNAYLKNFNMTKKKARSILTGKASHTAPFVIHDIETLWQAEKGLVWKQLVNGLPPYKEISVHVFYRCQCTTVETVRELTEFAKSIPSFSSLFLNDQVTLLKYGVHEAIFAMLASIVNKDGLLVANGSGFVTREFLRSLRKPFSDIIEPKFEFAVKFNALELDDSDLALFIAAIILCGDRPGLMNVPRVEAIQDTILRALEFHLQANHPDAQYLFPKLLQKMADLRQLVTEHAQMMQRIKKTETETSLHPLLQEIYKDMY

[3] = agonist mode, read-out: PPAR Alpha EC50
[4] = agonist mode, read-out: PPAR Delta EC50
[5] = relative to known PPARδ agonist L-165,041 = 100%

| Compound | EC50 [1, 3] | Emax [1] | EC50 [2, 4] | Emax [2, 5] | further results |
| --- | --- | --- | --- | --- | --- |
| COC(=O)N1CC(Cc2ccc(SC)cc2)C(c2cc(C)c(OC(C)(C)C(=O)O)c(C)c2)C1 (single isomer, unassigned) [Compound 23] | > 250 nM | – | – | – | – |
| CSc1ccc(C(=O)C2CN(C(=O)OC(C)C)CC2c2cc(C)c(OC(C)(C)C(=O)O)c(C)c2)cc1 (single isomer, unassigned) [Compound 7] | > 250 nM | 50 to 80% | > 250 nM | – | Emax [2]: 50 to 80% |
| CSc1ccc(C(=O)C2CN(C(=O)Oc3ccc(Cl)cc3)CC2c2cccc(OC(C)(C)C(=O)O)c2)cc1 (single isomer, unassigned) [Compound 33] | 200 to 250 nM | 80 to 100% | > 250 nM | – | Emax [2]: 50 to 80% |
| CSc1ccc(C(=O)C2CN(C(=O)Oc3ccccc3)CC2Cc2cccc(OC(C)(C)C(=O)O)c2)cc1 (single isomer, unassigned) [Compound 49] | – | – | 100 to 150 nM | – | Emax [2]: 50 to 80% |
| CSc1ccc(C(=O)C2CN(C(=O)Oc3ccccc3)CC2c2cccc(OC(C)(C)C(=O)O)c2)cc1 (stereo not drawn) [Compound 24] | – | – | > 250 nM | – | Emax [2]: 80 to 100% |
| CSc1ccc(C(=O)C2CN(C(=O)Oc3ccccc3)CC2Cc2cccc(OC(C)(C)C(=O)O)c2)cc1 (single isomer, unassigned) [Compound 50] | – | – | 150 to 200 nM | – | PPAR Delta Maximum Activation Response % [2]: II (key: 100% ≥ I ≥ 80%; 80% ≥ II ≥ 50%; III < 50%) |
| CSc1ccc(C(=O)[C@H]2CN(C)C[C@@H]2c2cc(C)c(OC(C)(C)C(=O)O)c(C)c2)cc1 (racemic) [Compound 1] | > 250 nM | < 50% | – | – | – |
| CSc1ccc(C(=O)[C@@H]2CN(C(=O)Oc3ccccc3)C[C@H]2CCc2cc(C)c(OC(C)(C)C(=O)O)c(C)c2)cc1 (single isomer, unassigned) [Compound 51] | < 100 nM | – | < 100 nM | – | Emax [2]: 80 to 100% |
| CSc1ccc(C(=O)C2CN(C(=O)Oc3ccc(Br)cc3)CC2Cc2cc(C)c(OC(C)(C)C(=O)O)c(C)c2)cc1 (stereo not drawn) [Compound 29] | < 100 nM | 80 to 100% | < 100 nM | – | Emax [2]: 80 to 100% |
| CSc1ccc(C(=O)C2CN(C(=O)Oc3ccccc3Cl)C[C@@H]2c2cc(C)c(OC(C)(C)C(=O)O)c(C)c2)cc1 (mixture of isomers) [Compound 12] | 150 to 200 nM | 80 to 100% | > 250 nM | – | Emax [2]: 50 to 80% |
| COC(=O)N1C[C@@H](C(=O)c2ccc(SC)cc2)[C@H](c2cc(C)c(OC(C)(C)C(=O)O)c(C)c2)C1 (single isomer, unassigned) [Compound 4] | > 250 nM | – | – | – | PPAR Alpha Maximum Activation Response % [1]: III (key: 100% ≥ I ≥ 80%; 80% ≥ II ≥ 50%; III < 50%) |
| CSc1ccc(C(=O)[C@@H]2CN(C(=O)Oc3ccccc3)C[C@H]2CCc2cc(C)c(OC(C)(C)C(=O)O)c(C)c2)cc1 (single isomer, unassigned) [Compound 52] | < 100 nM | – | < 100 nM | – | – |
| CSc1ccc(C(=O)[C@H]2CN(C(=O)Oc3ccccc3)C[C@@H]2CCc2cc(C)c(OC(C)(C)C(=O)OC(C)C)c(C)c2)cc1 (single isomer, unassigned) [Compound 61] | – | < 50% | – | – | EC50 ([1]; PPAR Alpha EC50 nM): > 250 nM; EC50 ([2]; PPAR Delta EC50 nM): > 250 nM; Emax [2]: < 50% |
| CCOC(=O)N1CC(C(=O)c2ccc(SC)cc2)C(c2cc(C)c(OC(C)(C)C(=O)O)c(C)c2)C1 (single isomer, unassigned) [Compound 6] | > 250 nM | 50 to 80% | – | – | – |
| CC(C)(Sc1ccc(CCN(CCCCC2CCCCC2)C(=O)NC2CCCCC2)cc1)C(=O)O [GW7647, reference compound] | – | – | – | – | Emax ([1]; reference agonist, indicated to be 100% (Note 1)): 100% |
| COC(=O)N1CC(Cc2ccc(SC)cc2)C(c2cc(C)c(OC(C)(C)C(=O)O)c(C)c2)C1 (single isomer, unassigned) [Compound 22] | > 250 nM | < 50% | – | – | – |
| CSc1ccc(C(=O)[C@H]2CNC[C@@H]2c2cc(C)c(OC(C)(C)C(=O)O)c(C)c2)cc1 (racemic) [Compound 3] | > 250 nM | < 50% | – | – | – |

Now from value to compound, other results behind:

| EC50 [1, 3] | Emax [1] | EC50 [2, 4] | Emax [2, 5] | Compound | further results |
| --- | --- | --- | --- | --- | --- |
| 200 to 250 nM | 80 to 100% | > 250 nM | 80 to 100% | CSc1ccc(C(=O)C2CN(C3COC3)C[C@@H]2CCc2cc(C)c(OC(C)(C)C(=O)O)c(C)c2)cc1 (mixture of isomers) [Compound 73] | – |
| < 100 nM | 80 to 100% | < 100 nM | 80 to 100% | CSc1ccc(C(=O)[C@@H]2CN(C(=O)Oc3ccc(Cl)cc3F)C[C@H]2c2cc(C)c(OC(C)(C)C(=O)O)c(C)c2)cc1 (single isomer, unassigned) [Compound 42] | – |
| 200 to 250 nM | 80 to 100% | > 250 nM | 50 to 80% | CSc1ccc(C(=O)C2CN(S(C)(=O)=O)CC2c2cc(C)c(OC(C)(C)C(=O)O)c(C)c2)cc1 (single isomer, unassigned) [Compound 18] | – |
| 100 to 150 nM | 80 to 100% | 200 to 250 nM | 80 to 100% | CSc1ccc(C(=O)C2CN(C(=O)Oc3ccccc3)CC2Cc2ccc(OC(C)(C)C(=O)O)cc2F)cc1 (single isomer, unassigned) [Compound 83] | – |
| < 100 nM | 80 to 100% | 100 to 150 nM | 80 to 100% | CSc1ccc(C(=O)[C@H]2CN(C(=O)OCCC(C)C)C[C@@H]2CCc2cc(C)c(OC(C)(C)C(=O)O)c(C)c2)cc1 (racemic) [Compound 72] | – |
| > 250 nM | 80 to 100% | – | – | CSc1ccc(C(=O)C2CN(C(=O)c3ccccc3)CC2c2cc(C)c(OC(C)(C)C(=O)O)c(C)c2)cc1 (single isomer, unassigned) [Compound 16] | – |
| 100 to 150 nM | 80 to 100% | 100 to 150 nM | 80 to 100% | Cc1cc(CCC2CN(C(=O)Oc3ccccc3)CC2C(=O)c2ccccc2)cc(C)c1OC(C)(C)C(=O)O (single isomer, unassigned) [Compound 62] | – |
| > 250 nM | – | – | – | CSc1ccc(C(=O)C2CN(C(=O)c3ccccc3)CC2c2cc(C)c(OC(C)(C)C(=O)O)c(C)c2)cc1 (single isomer, unassigned) [Compound 17] | – |
| < 100 nM | 80 to 100% | 100 to 150 nM | 80 to 100% | CSc1ccc(C(=O)[C@@H]2CN(C(=O)Oc3ccc(C(C)C)cc3)C[C@H]2c2cc(C)c(OC(C)(C)C(=O)O)c(C)c2)cc1 (single isomer, unassigned) [Compound 40] | – |
| < 100 nM | 80 to 100% | < 100 nM | 80 to 100% | CSc1ccc(C(=O)[C@@H]2CN(C(=O)Oc3ccc(Cl)cc3Cl)C[C@H]2c2cc(C)c(OC(C)(C)C(=O)O)c(C)c2)cc1 (single isomer, unassigned) [Compound 41] | – |
| < 100 nM | 80 to 100% | > 250 nM | 50 to 80% | CSc1ccc(C(=O)[C@H]2CN(C(=O)Cc3ccc(Cl)cc3)C[C@@H]2c2cc(C)c(OC(C)(C)C(=O)O)c(C)c2)cc1 (racemic) [Compound 36] | – |
| 200 to 250 nM | 80 to 100% | > 250 nM | 50 to 80% | CSc1ccc(C(=O)C2CN(S(N)(=O)=O)CC2c2cc(C)c(OC(C)(C)C(=O)O)c(C)c2)cc1 (single isomer, unassigned) [Compound 19] | – |
| > 250 nM | 50 to 80% | – | – | CSc1ccc(C(=O)C2CN(C(=O)OCc3ccccc3)CC2c2cc(C)c(OC(C)(C)C(=O)O)c(C)c2)cc1 (single isomer, unassigned) [Compound 8] | – |
| > 250 nM | < 50% | – | – | CSc1ccc(C(=O)[C@H]2CN(Cc3ccccc3)C[C@@H]2c2cc(C)c(OC(C)(C)C(=O)O)c(C)c2)cc1 (racemic) [Compound 2] | – |

Reference: patent US10526320B2, “Pyrrolidine derivatives as PPAR agonists” (GUANGDONG RAYNOVENT BIOTECH CO., LTD., priority 2016, dated 2020)
